Experiments:
(G4C2)8 hairpin RNA = assay: Binding affinity to (G4C2)8 hairpin RNA (unknown origin) by TO-PRO-1 dye displacement assay
[1] = biological target: T1, TAR DNA-binding protein 43 (Homo sapiens, UniProt Q13148); assay: Inhibition of TDP-43 (unknown origin) binding to RNA
[2] = biological target: T1, TAR DNA-binding protein 43; assay: Binding affinity to TDP-43 (unknown origin)

T1 sequence (Q13148 whole entry): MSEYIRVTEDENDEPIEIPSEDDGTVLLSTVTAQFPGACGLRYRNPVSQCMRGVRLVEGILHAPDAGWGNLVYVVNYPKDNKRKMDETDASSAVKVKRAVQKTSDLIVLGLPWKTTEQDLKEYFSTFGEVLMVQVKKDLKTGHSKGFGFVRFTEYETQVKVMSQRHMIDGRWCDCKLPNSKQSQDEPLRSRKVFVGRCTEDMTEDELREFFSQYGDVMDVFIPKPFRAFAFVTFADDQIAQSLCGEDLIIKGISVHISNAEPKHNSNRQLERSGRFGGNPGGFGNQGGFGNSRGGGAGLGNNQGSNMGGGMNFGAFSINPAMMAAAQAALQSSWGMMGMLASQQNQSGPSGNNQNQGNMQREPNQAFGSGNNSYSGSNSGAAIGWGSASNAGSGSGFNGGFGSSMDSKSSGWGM

Compound: Cc1c2cc[n+](C)cc2c(C)c2c1[nH]c1ccc(O)cc12
- Kd ((G4C2)8 hairpin RNA): 0.9 µM

Compound: CCN(CC)CC[n+]1ccc2c(C)c3[nH]c4ccc(O)cc4c3c(C)c2c1
- Kd ((G4C2)8 hairpin RNA): 1.4 µM

Compound: CCN(CC)CCNC(=O)c1cc2cc(NC(=O)c3cc4cc(N)ccc4[nH]3)ccc2[nH]1
- Kd ((G4C2)8 hairpin RNA): 16 µM

Compound: COc1cc(NC(=O)CCC2CCCN(Cc3ccc(F)c(OC)c3)C2)cc(OC)c1 (stereo not given)
- IC50 [1]: 0.1 µM

Compound: NC(=O)c1cncc(N2CCCC(CO)(Cc3ccc(F)cc3)C2)n1 (stereo not given)
- Kd [2]: 89 µM

Compound: CCc1cccc(C)c1NS(=O)(=O)c1cnccc1C(=O)N1CCCC1
- IC50 [1]: > 0.1 µM

Compound: N=C(N)c1ccc(Nc2ccc(-c3cc4ccc(C(=N)N)cc4[nH]3)cc2)cc1
- Kd ((G4C2)8 hairpin RNA): 10 µM

Compound: NC(=O)CCCCC1CCSS1 (racemic) [THIOCTIC ACID AMIDE]
- IC50 [1]: 20 µM

Compound: O=C1c2c(O)ccc(O)c2C(=O)c2c(NCCNCCO)ccc(NCCNCCO)c21 [MITOXANTRONE]
- IC50 [1]: 10 µM

Compound: O=C(O)CCCC[C@@H]1CCSS1 [THIOCTIC ACID]
- IC50 [1]: 20 µM

From ChEMBL document CHEMBL4627248, “Emerging small-molecule therapeutic approaches for amyotrophic lateral sclerosis and frontotemporal dementia” (Bioorg Med Chem Lett, 2020)
